Measurements taken from US9938562B2, “Naphthalene derived chromogenic enzyme substrates” (Glycosynth Limited, priority 2013, dated 2018).
Structures can show the parent of a compound that is named as a salt. Where two headings read alike, the source gives them in different places.

Columns and labels:
[1] = tested on: Escherichia coli NCTC 10418; experiment: Agar plate multi-point inoculation, colour; assay type: cell-based
[2] = tested on: Providencia rettgeri NCTC 7475; experiment: Agar plate multi-point inoculation, colour; assay type: cell-based
[3] = tested on: Enterobacter cloacae NCTC 11936; experiment: Agar plate multi-point inoculation, colour; assay type: cell-based
[4] = tested on: Serratia marcescens NCTC 10211; experiment: Agar plate multi-point inoculation, colour; assay type: cell-based
[5] = tested on: Salmonella typhimurium NCTC 74; experiment: Agar plate multi-point inoculation, colour; assay type: cell-based
[6] = tested on: Pseudomonas aeruginosa NCTC 10662; experiment: Agar plate multi-point inoculation, colour; assay type: cell-based
[7] = tested on: Yersinia enterocolitica NCTC 11176; experiment: Agar plate multi-point inoculation, colour; assay type: cell-based; conditions: Columbia agar, FAC 500 mg/L, substrate 300 mg/L, 37° C. 18 h in air
[8] = tested on: Steptococcus pyogenes NCTC 8306; experiment: Agar plate multi-point inoculation, colour; assay type: cell-based
[9] = tested on: Staphylococcus aureus (MRSA) NCTC 11939; experiment: Agar plate multi-point inoculation, colour; assay type: cell-based; conditions: Columbia agar, FAC 500 mg/L, substrate 300 mg/L, 37° C. 18 h in air
[10] = tested on: Staphylococcus aureus NCTC 6571; experiment: Agar plate multi-point inoculation, colour; assay type: cell-based
[11] = tested on: Staphylococcus epidermidis NCTC 11047; experiment: Agar plate multi-point inoculation, colour; assay type: cell-based
[12] = tested on: Listeria monocytogenes NCTC 11994; experiment: Agar plate multi-point inoculation, colour; assay type: cell-based
[13] = tested on: Enterococcus faecium NCTC 7171; experiment: Agar plate multi-point inoculation, colour; assay type: cell-based
[14] = tested on: Enterococcus faecalis NCTC 775; experiment: Agar plate multi-point inoculation, colour; assay type: cell-based
[15] = tested on: Bacillus subtilis NCTC 9372; experiment: Agar plate multi-point inoculation, colour; assay type: cell-based
[16] = tested on: Candida albicans ATCC 90028; assay type: cell-based
[17] = tested on: Candida glabrata NCPF 3943; experiment: Agar plate multi-point inoculation, colour; assay type: cell-based
[18] = tested on: Burkholderia cepacia 1222; experiment: Agar plate multi-point inoculation, colour; assay type: cell-based; conditions: Columbia agar, FAC 500 mg/L, substrate 300 mg/L, 37° C. 18 h in air
[19] = tested on: Citrobacter freundii NCTC 9750 or 46262; experiment: Agar plate multi-point inoculation, colour; assay type: cell-based; conditions: Columbia agar, FAC 500 mg/L, substrate 300 mg/L, 37° C. 18 h in air
[20] = tested on: Morganella morganii 462403 (wild); experiment: Agar plate multi-point inoculation, colour; assay type: cell-based; conditions: Columbia agar, FAC 500 mg/L, substrate 300 mg/L, 37° C. 18 h in air
[21] = tested on: clinical isolates of E. coli; assay type: cell-based
E. cloacae = experiment: Glucuronide screen, broth containing FAC; assay type: cell-based
E. faecium NCTC 7171 = experiment: Glucuronide screen, broth containing FAC; assay type: cell-based; conditions: E. faecium NCTC 7171, broth
E. faecalis NCTC 775 = experiment: Glucuronide screen, broth containing FAC; assay type: cell-based; conditions: E. faecalis NCTC 775, broth
[22] = tested on: E. coli expressing both β-D-glucuronidase and β-D-galactosidase; experiment: Broth medium with ONPG (dual chromogenic system); assay type: cell-based; conditions: broth with FAC, ONPG 1.5 g/L
Description: (§1) The two indoxyl glucuronides used produce insoluble endpoints following hydrolysis, as does the CPS ID 3 medium. It was therefore necessary to test these two substrates on agar plates. In contrast, DHN-β-D-glucuronide (12) gives a much more soluble endpoint best suited to liquid media and was therefore tested in a broth medium. The broth was prepared using proteose peptone (2 g), NaCl (1 g) and FAC (100 mg) in DI water (180 mL). This mixture was autoclaved and cooled to room temperature before being dispensed into bijoux (100×1.8 mL). DHN-β-D-glucuronide CHA salt (12a) (60 mg) was dissolved in water (20 mL) and filtered to sterilize before being aseptically dispensed into successive bijoux (0.2 mL) containing the broth solution. The broth/substrate solutions were then inoculated with bacterial suspensions made up to 0.5 McFarland standard (2 μL per bijoux). X-β-D-glucuronide CHA salt (Glycosynth Ltd, Warrington, UK) (10 mg) was dissolved in NMP (200 μL). […]
(§2) Because many E. coli produce both β-D-glucuronidase and β-D-galactosidase, DHN-β-D-glucuronide (12a) was tested as in the broth medium described above but in the presence of ONPG (at a concentration of 1.5 g/L). […] The colour of these solutions of mixed chromogens could be very readily distinguished with the unaided eye from the yellow colour of those strains, such as E. cloacae, that produced β-D-galactosidase only. […]

Shigella sonnei = experiment: Broth medium with ONPG (dual chromogenic system); assay type: cell-based; conditions: combination with ONPG
Description: as §1, §2

[23] = tested on: Klebsiella pneumoniae NCTC 9528; experiment: Agar plate multi-point inoculation, colour; assay type: cell-based
[24] = tested on: Burkholderia cepacia NCTC 10931; experiment: Agar plate multi-point inoculation, colour; assay type: cell-based; conditions: Columbia agar, FAC 500 mg/L, substrate 300 mg/L, 37° C. 18 h in air
[25] = tested on: Acinetobacter baumannii NCTC 19606; experiment: Agar plate multi-point inoculation, colour; assay type: cell-based
range of microorganisms = experiment: Agar plate evaluation with a range of microorganisms (hue, diffusion, background); assay type: cell-based; conditions: agar plates with FAC

O=C(O)C1OC(Oc2cc3ccccc3cc2O)C(O)C(O)C1O [Compound 12a, DHN-β-D-glucuronide CHA Salt]
18: Negative strains [21]
++: Colour [1]
able to detect: detection of β-D-glucuronidase activity (Shigella sonnei)
82%: % Sensitivity [21]
−: Colour [2] | Colour [3] | Colour [4] | Colour [5] | Colour [6] | Colour [7] | Colour [8] | Colour [9] | Colour [10] | Colour [11] | Colour [12] | Colour [13] | Colour [14] | Colour [15] | Colour ([16]; Columbia agar, FAC 500 mg/L, substrate 300 mg/L, 37° C. 18 h in air) | Colour [17] | Colour [18] | Colour [19] | Colour [20] | Colour (E. cloacae; E. cloacae 260329R, broth) | Colour (E. cloacae; E. cloacae NCTC 11936, broth) | Colour (E. faecium NCTC 7171) | Colour (E. faecalis NCTC 775)
strong colour: hydrolysis of substrate (judged by colour) [1]
purple-brown solutions: colour of solutions [22]
Purple and −: Colour [21]
82: Positive strains [21]

DHN-6-sulfonic acid-β-D-galactopyranoside sodium salt [Compound 31]
−: Colour [23] | Colour [4] | Colour [5] | Colour [6] | Colour [7] | Colour [24] | Colour [25] | Colour [8] | Colour [9] | Colour [10] | Colour [11] | Colour [12] | Colour [13] | Colour [14] | Colour [15] | Colour [16] | Colour [17]
+: Colour [1] | Colour [2] | Colour [3]
30 mg: amount dissolved in water
purple to maroon colonies: colour (hue) after hydrolysis (range of microorganisms)
